Data published in publication PMC9388626, “STUB1 is an intracellular checkpoint for interferon gamma sensing” (Scientific Reports, 2022).

What was measured:
[1] = test system: B16-F10 cells; experiment: Flow cytometry, surface MHC-I on CRISPR-edited cells with IFNγ; format: cell-based, murine
Description: Parental, CRISPR-edited or biologic-overexpressed tumour cells were seeded in a cell density of 60,000 (B16-F10), 150,000 (CT26), 100,000 (A375), or 200,000 (A549) per well in 12-well plate filled with 0.8 ml culture media + 10% FBS. After overnight incubation, the culture media were replaced with 1 ml fresh media supplemented with 10% FBS and the designated concentration of the recombinant mouse IFNγ (R&D Systems, #485-MI-100) or recombinant human IFNγ (R&D Systems, #285-IF-100). […]
(§1) Cells were dissociated from the wells with 0.25% trypsin (Gibco, 25200056). After rinsing with 0.5 ml PBS, each sample was stained with the LIVE/DEAD Fixable Aqua dead cell staining solution (Life Technologies, L34957) in 100 µl PBS (1:1000 dilution) for 15 min at 4 °C. After rinsing with 2 × 0.5 ml PBS, each sample was stained with the corresponding primary antibody-dye conjugates diluted in 100 µl Pharmingen stain buffer (BD Biosciences, #554657). After 1 h staining at 4 °C, the cells were rinsed with 2 × 2 ml Pharmingen stain buffer and fixed with 4.21% (w/w) formaldehyde (BD Biosciences, #554655). Cells were analyzed on LSRFortessa X-20 (BD Biosciences) with appropiate fluorescence compensation. The data were analyzed using FlowJo. Cells were gated based on FSC and SSC. Single cells were selected using FSC-A and FSC-H and viable cells were selected using LIVE/DEAD signal. Primary antibodies used were: H-2K^b/H-2D^b (FITC, Biolegend, #114606, 1:50 dilution), HLA-A,B,C (FITC, Biolegend, #311404, 1:100 dilution), mouse IFNGR1 (PE, Invitrogen, #12-1191-82, 1:50 dilution), human IFNGR1 (PE, Miltenyi, #130-125-851, 1:50 dilution), mouse IL1R1 (APC, Biolegend, #113509, 1:20 dilution), mouse IL6R (APC, Biolegend, #115812, 1:20 dilution), mouse IFNAR1 (APC, Biolegend, #127314, 1:20 dilution), and mouse GP130 (PE, Biolegend, #149404, 1:100 dilution).

[2] = test system: B16-F10 cells; experiment: Flow cytometry, surface IFNGR1 on CRISPR-edited cells; format: cell-based, murine; settings: B16-F10, 24 h
Description: Parental, CRISPR-edited or biologic-overexpressed tumour cells were seeded in a cell density of 60,000 (B16-F10), 150,000 (CT26), 100,000 (A375), or 200,000 (A549) per well in 12-well plate filled with 0.8 ml culture media + 10% FBS. After overnight incubation, the culture media were replaced with 1 ml fresh media supplemented with 10% FBS and the designated concentration of the recombinant mouse IFNγ (R&D Systems, #485-MI-100) or recombinant human IFNγ (R&D Systems, #285-IF-100). The cells were stimulated with the cytokine for 24 h before they were harvested by trypsinization for flow cytometry, western blot, or qPCR analysis (6 h treatment).
as §1

IFNγ
IFNγ concentration needed by parental and control cells for response comparable to Stub1-null cells ([1]; B16-F10 (Fig. 1b, e)): at least tenfold higher concentration of IFNγ
MHC-I relative abundance compared to parental ([1]; Parental, 0.10 ng ml-1, 24 h): 1.00
MHC-I relative abundance compared to parental ([1]; Parental, 0.10 ng ml-1, 48 h): 1.00
Surface MHC-I ([1]; Stub1-null vs parental and control B16-F10): significantly higher, IFNγ-dependent, MHC-I on cell surface
MHC-I relative abundance compared to parental ([1]; clone 1A12 (gStub1 #2), 0.10 ng ml-1, 24 h): 3.60
MHC-I relative abundance compared to parental ([1]; clone 1A12 (gStub1 #2), 0.10 ng ml-1, 48 h): 11.41
MHC-I relative abundance compared to parental ([1]; clone 1B9, 0.10 ng ml-1, 24 h): 1.36
MHC-I relative abundance compared to parental ([1]; clone 1B9, 0.10 ng ml-1, 48 h): 1.43
MHC-I relative abundance compared to parental ([1]; clone 1D8, 0.10 ng ml-1, 24 h): 4.16
MHC-I relative abundance compared to parental ([1]; clone 1D8, 0.10 ng ml-1, 48 h): 12.70
MHC-I relative abundance compared to parental ([1]; clone 1D10 (gStub1 #1), 0.10 ng ml-1, 24 h): 4.42
MHC-I relative abundance compared to parental ([1]; clone 1D10 (gStub1 #1), 0.10 ng ml-1, 48 h): 13.18
MHC-I relative abundance compared to parental ([1]; clone 1E6, 0.10 ng ml-1, 24 h): 9.22
MHC-I relative abundance compared to parental ([1]; clone 1E6, 0.10 ng ml-1, 48 h): 24.23
MHC-I relative abundance compared to parental ([1]; clone 1G6, 0.10 ng ml-1, 24 h): 4.19
MHC-I relative abundance compared to parental ([1]; clone 1G6, 0.10 ng ml-1, 48 h): 12.85
MHC-I relative abundance compared to parental ([1]; clone 1G10, 0.10 ng ml-1, 24 h): 1.08
MHC-I relative abundance compared to parental ([1]; clone 1G10, 0.10 ng ml-1, 48 h): 0.94
MHC-I relative abundance compared to parental ([1]; clone 1H7, 0.10 ng ml-1, 24 h): 2.27
MHC-I relative abundance compared to parental ([1]; clone 1H7, 0.10 ng ml-1, 48 h): 5.53
MHC-I relative abundance compared to parental ([1]; clone 2B11, 0.10 ng ml-1, 24 h): 2.67
MHC-I relative abundance compared to parental ([1]; clone 2B11, 0.10 ng ml-1, 48 h): 9.24
MHC-I relative abundance compared to parental ([1]; clone 2E8 (gControl), 0.10 ng ml-1, 24 h): 0.75
MHC-I relative abundance compared to parental ([1]; clone 2E8 (gControl), 0.10 ng ml-1, 48 h): 0.77
MHC-I relative abundance compared to parental ([1]; clone 2E9, 0.10 ng ml-1, 24 h): 4.10
MHC-I relative abundance compared to parental ([1]; clone 2E9, 0.10 ng ml-1, 48 h): 11.55
MHC-I relative abundance compared to parental ([1]; clone 2F7, 0.10 ng ml-1, 24 h): 1.00
MHC-I relative abundance compared to parental ([1]; clone 2F7, 0.10 ng ml-1, 48 h): 1.01
MHC-I relative abundance compared to parental ([1]; clone 2H3, 0.10 ng ml-1, 24 h): 3.56
MHC-I relative abundance compared to parental ([1]; clone 2H3, 0.10 ng ml-1, 48 h): 12.42
Cell surface IFNGR1 with increasing IFNγ [2]: declined with increasing IFNγ concentration
